# From US20250127863A1, “ANTIMICROBIAL PEPTIDE FOR ONYCHOMYCOSIS” (CBMR SCIENTIFIC NANOSCIENCE B.V., priority 2019, published 2025)
# No end group written: not given here.
# Tests used:
# Sclerotinia sclerotiorum = experiment: IC50 growth inhibition; assay type: cell-based
# Pichia membramfaciens = experiment: MIC90 growth inhibition; assay type: cell-based; conditions: RPMI 1640 one-fourth strength
# Description: (§1) The minimum inhibitory concentration (MIC) value is defined as the lowest sample concentration that inhibited growth. In the Examples, the MIC90 value is presented, which MIC90 values are determined according to established methods known to the person with the skills in the relevant art. Experiments; 1×10E5 CFU of various strains/ml were incubated for 24-48 h at 37° C. in 4× diluted medium of RPMI 1640 with the indicated concentrations of antimicrobial peptide hLF(1-11) [SEQ ID NO: 3]. As controls various strains cells were incubated for 24-48 h at 37° C. with no agent (antimicrobial peptide), and subsequently, growth of the microbial organism (e.g. yeast, bacterium) was monitored by using spectrophotometry with a spectrophotometer at 620 nm. […] ND=Not done. Representative single assay data are listed rather than a range, for clarity reasons and for ease of comparison of peptide efficacy. The MIC was calculated as the lowest antibiotic (antimicrobial peptide) concentration at which growth of the assessed yeast or bacterium (microbe) was inhibited (inhibitory concentration IC90).
# Mucor spp = experiment: MIC90 growth inhibition; assay type: cell-based; conditions: RPMI 1640 one-fourth strength
# Description: as §1
# C. neoformans = experiment: MIC90 growth inhibition; assay type: cell-based; conditions: RPMI 1640 one-fourth strength
# Description: as §1
# [1] = test system: Malassezia furfur CBS 9595; experiment: MIC90 growth inhibition; assay type: cell-based; conditions: RPMI 1640 one-fourth strength
# Description: as §1
# Aspergillus terreus = experiment: MIC90 growth inhibition; assay type: cell-based; conditions: RPMI 1640 one-fourth strength
# Description: as §1
# Streptococcus lactis = experiment: MIC90 growth inhibition; assay type: cell-based; conditions: RPMI 1640 one-fourth strength
# Description: as §1
# Cryptococcus gattii = experiment: MIC90 growth inhibition; assay type: cell-based; conditions: RPMI 1640 one-fourth strength
# Description: as §1
# Trichophyton tonsurans = experiment: MIC90 growth inhibition; assay type: cell-based; conditions: RPMI 1640 one-fourth strength
# Description: as §1
# Torula spp = experiment: MIC90 growth inhibition; assay type: cell-based; conditions: RPMI 1640 one-fourth strength
# Description: as §1
# [2] = test system: Malassezia pachydermatis CBS 1883; experiment: MIC90 growth inhibition; assay type: cell-based; conditions: RPMI 1640 one-fourth strength
# Description: as §1
# Rhizopus spp = experiment: MIC90 growth inhibition; assay type: cell-based; conditions: RPMI 1640 one-fourth strength
# Description: as §1
# Aspergillus fumigatus = experiment: MIC90 growth inhibition; assay type: cell-based; conditions: RPMI 1640 one-fourth strength
# Description: as §1
# Aspergillus spp = experiment: MIC90 growth inhibition; assay type: cell-based; conditions: RPMI 1640 one-fourth strength
# Description: as §1
# [3] = test system: Cryptococcus uniguttulatus; experiment: MIC90 growth inhibition; assay type: cell-based; conditions: RPMI 1640 one-fourth strength
# Description: as §1
# Streptococcus caseii = experiment: MIC90 growth inhibition; assay type: cell-based; conditions: RPMI 1640 one-fourth strength
# Description: as §1
# Candida spp. = experiment: MIC90 growth inhibition; assay type: cell-based; conditions: RPMI 1640 one-fourth strength
# Description: as §1
# Microsporum gypseum = experiment: MIC90 growth inhibition; assay type: cell-based; conditions: RPMI 1640 one-fourth strength
# Description: as §1
# Malassezia furfur spp. = experiment: MIC90 growth inhibition; assay type: cell-based; conditions: RPMI 1640 one-fourth strength
# Description: as §1
# [4] = test system: Saccharomyces cerevisiae spp; experiment: MIC90 growth inhibition; assay type: cell-based; conditions: RPMI 1640 one-fourth strength
# Description: as §1
# Meyerozyma spp. = experiment: MIC90 growth inhibition; assay type: cell-based; conditions: RPMI 1640 one-fourth strength
# Description: as §1
# Nannizzia incurvata = experiment: MIC90 growth inhibition; assay type: cell-based; conditions: RPMI 1640 one-fourth strength
# Description: as §1
# Aspergillus tamarii = experiment: MIC90 growth inhibition; assay type: cell-based; conditions: RPMI 1640 one-fourth strength
# Description: as §1
# Penicillium vermiculatum = experiment: MIC90 growth inhibition; assay type: cell-based; conditions: RPMI 1640 one-fourth strength
# Description: as §1
# [5] = test system: Malassezia furfur CBS-9372; experiment: MIC90 growth inhibition; assay type: cell-based; conditions: RPMI 1640 one-fourth strength
# Description: as §1
# [6] = test system: Saccharomyces cerivisiae CMC-520; experiment: MIC90 growth inhibition; assay type: cell-based; conditions: RPMI 1640 one-fourth strength
# Description: as §1
# [7] = test system: Malassezia pachydermatis CBS 1880; experiment: MIC90 growth inhibition; assay type: cell-based; conditions: RPMI 1640 one-fourth strength
# Description: as §1
# [8] = test system: Malassezia furfur CBS-4172; experiment: MIC90 growth inhibition; assay type: cell-based; conditions: RPMI 1640 one-fourth strength
# Description: as §1
# Penicillium spp = experiment: MIC90 growth inhibition; assay type: cell-based; conditions: RPMI 1640 one-fourth strength
# Description: as §1
# Cladosporium trichoides = experiment: MIC90 growth inhibition; assay type: cell-based; conditions: RPMI 1640 one-fourth strength
# Description: as §1
# Mycobacterium avium = experiment: MIC90 growth inhibition; assay type: cell-based; conditions: RPMI 1640 one-fourth strength
# Description: as §1
# Penicillium expansum = experiment: MIC90 growth inhibition; assay type: cell-based; conditions: RPMI 1640 one-fourth strength
# Description: as §1
# [9] = test system: Malassezia pachydermatis CBS-1879; experiment: MIC90 growth inhibition; assay type: cell-based; conditions: RPMI 1640 one-fourth strength
# Description: as §1
# Escherichia coli = experiment: MIC90 growth inhibition; assay type: cell-based; conditions: RPMI 1640 one-fourth strength
# Description: as §1
# Aspergillus niger = experiment: MIC90 growth inhibition; assay type: cell-based; conditions: RPMI 1640 one-fourth strength
# Description: as §1
# Dekkera bruxellensis = experiment: MIC90 growth inhibition; assay type: cell-based; conditions: RPMI 1640 one-fourth strength
# Description: as §1
# [10] = test system: M. guilliermondii CBS-2030 (Perugia); experiment: MIC90 growth inhibition; assay type: cell-based; conditions: RPMI 1640 one-fourth strength
# Description: as §1
# [11] = test system: Staphylococcus epidermidis; experiment: MIC90 growth inhibition; assay type: cell-based; conditions: RPMI 1640 one-fourth strength
# Description: as §1
# Aspergillus nidulans = experiment: MIC90 growth inhibition; assay type: cell-based; conditions: RPMI 1640 one-fourth strength
# Description: as §1
# Sporothrix schenckii = experiment: MIC90 growth inhibition; assay type: cell-based; conditions: RPMI 1640 one-fourth strength
# Description: as §1
# [12] = test system: Streptocococcus mitis 033; experiment: MIC90 growth inhibition; assay type: cell-based; conditions: RPMI 1640 one-fourth strength
# Description: as §1
# Geotrichium spp = experiment: MIC90 growth inhibition; assay type: cell-based; conditions: RPMI 1640 one-fourth strength
# Description: as §1
# [13] = test system: Crypt. neoform. ▴ SKN7 (UMC); experiment: MIC90 growth inhibition; assay type: cell-based, Cryptococcus neoformans; conditions: genetically modified type species, RPMI 1640 one-fourth strength
# Description: as §1
# C. lusitaniae CMC-1944 = experiment: MIC90 growth inhibition; assay type: cell-based, Candida lusitaniae; conditions: RPMI 1640 one-fourth strength
# Description: as §1
sequence,measurement,setting,value
"GRRRRSVQWCA [hLF1-11, Gly Arg Arg Arg Arg Ser Val Gln Trp Cys Ala]",Inhibitory concentration IC50,Sclerotinia sclerotiorum,IC50 = 31 μg/mL
same,Inhibitory concentration MIC (MIC90),Pichia membramfaciens,MIC = 45 μg/ml
same,Inhibitory concentration MIC (MIC90),Mucor spp,MIC = 25-50 μg/mL
same,Inhibitory concentration MMC,C. neoformans,MMC = 50 μg/ml
same,Inhibitory concentration MIC (MIC90),[1],MIC = 25-50 μg/mL
same,Inhibitory concentration MIC (MIC90),Aspergillus terreus,MIC = 2.5-12.5 μg/ml
same,Inhibitory concentration MIC (MIC90),Streptococcus lactis,MIC = 3.1 μg/ml
same,Inhibitory concentration MIC (MIC90),Cryptococcus gattii,MIC = 64 μg/mL
same,Inhibitory concentration MIC (MIC90),Trichophyton tonsurans,MIC = 5-40 μg/ml
same,Inhibitory concentration MIC (MIC90),Torula spp,MIC = 40 μg/ml
same,Inhibitory concentration MIC (MIC90),[2],MIC = 25-50 μg/mL
same,Inhibitory concentration MIC (MIC90),Rhizopus spp,MIC = 25 μg/mL
same,Inhibitory concentration MIC (MIC90),Aspergillus fumigatus,MIC = 2.5-25 μg/ml
same,Inhibitory concentration MIC (MIC90),Aspergillus spp,MIC = 2.5-12.5 μg/ml
same,Inhibitory concentration MIC (MIC90),[3],MIC = 6 μg/ml
same,Inhibitory concentration MIC (MIC90),Streptococcus caseii,MIC = 3.1 μg/ml
same,Inhibitory concentration MIC (MIC90),Candida spp.,MIC = 12.5-50 μg/ml
same,Inhibitory concentration MIC (MIC90),Microsporum gypseum,MIC = 20-40 μg/ml
same,Inhibitory concentration MIC (MIC90),Malassezia furfur spp.,MIC = 12.5-50 μg/mL
same,Inhibitory concentration MIC (MIC90),[4],MIC = 0.63-50 μg/ml
same,Inhibitory concentration MIC (MIC90),Meyerozyma spp.,MIC = 25-50 μg/mL
same,Inhibitory concentration MIC (MIC90),Nannizzia incurvata,MIC = 18 μg/ml
same,Inhibitory concentration MIC (MIC90),Aspergillus tamarii,MIC = 2.5-12.5 μg/ml
same,Inhibitory concentration MIC (MIC90),Penicillium vermiculatum,MIC = 45 μg/ml
same,Inhibitory concentration MIC (MIC90),[5],MIC = 50 μg/ml
same,Inhibitory concentration MIC (MIC90),[6],MIC = 50 μg/ml
same,Inhibitory concentration MIC (MIC90),[7],MIC = 25-50 μg/mL
same,Inhibitory concentration MIC (MIC90),[8],MIC = 50 μg/ml
same,Inhibitory concentration MIC (MIC90),Penicillium spp,MIC = 12.5-50 μg/ml
same,Inhibitory concentration MIC (MIC90),Cladosporium trichoides,MIC = 5 μg/ml
same,Inhibitory concentration MIC (MIC90),Mycobacterium avium,MIC = 50 μg/ml
same,Inhibitory concentration MIC (MIC90),Penicillium expansum,MIC = 16 μM
same,Inhibitory concentration MIC (MIC90),[9],MIC = 50 μg/ml
same,Inhibitory concentration MIC (MIC90),Escherichia coli,MIC = 6.3 μg/ml
same,Inhibitory concentration MIC (MIC90),Aspergillus niger,MIC = 50 μg/mL
same,Inhibitory concentration MIC (MIC90),Dekkera bruxellensis,MIC = 3.75-20 μM
same,Inhibitory concentration MIC (MIC90),[10],MIC = 50 μg/mL
same,Inhibitory concentration MIC (MIC90),[11],MIC = 3.1 μg/ml
same,Inhibitory concentration MIC (MIC90),Aspergillus nidulans,MIC = 2.5-12.5 μg/ml
same,Inhibitory concentration MIC (MIC90),Sporothrix schenckii,MIC = 2-10 μg/ml
same,Inhibitory concentration MIC (MIC90),[12],MIC = 6.3 μg/ml
same,Inhibitory concentration MIC (MIC90),Geotrichium spp,MIC = 50 μg/mL
same,Inhibitory concentration MIC (MIC90),[13],MIC = 6.3 μg/ml
same,Inhibitory concentration MIC (MIC90),C. lusitaniae CMC-1944,MIC = 50 μg/mL
